# Laboratory results reported in patent US20050060764A1, “Mouse model for bone metabolism” (priority 2003, published 2005).
# Strand notation (5' to 3'): a small letter for the sugar, then the base; units joined by * are phosphorothioate-linked, units joined directly phosphodiester-linked; [ ] holds rarer units or linkages, { } end groups; capitals alone tell only the bases. e = 2'-O-(2-methoxyethyl) (MOE); [5mC] = 5-methylcytosine; d = 2'-deoxy (DNA)
# Key:
# [1] = Serum calcium after RANK antisense oligonucleotide treatment and PTH infusion: time course (Table 13); type: in vivo, mouse; conditions: for Serum calcium concentration: then 24 h PTH
# Method: (§1) In accordance with the present invention, ISIS 181071 was administered to mice for different time periods to evaluate its ability to inhibit RANK expression and PTH-induced serum calcium concentration increase as a function of oligonucleotide treatment time.
# (§2) Female Swiss-Webster mice (5-8 wks old) were fed a low-calcium diet and received daily subcutaneous injections of 30 mg/kg of ISIS 181071 (SEQ ID NO: 356) for 2, 3, 5, 7, 10, 14, or 21 days. At the end of the oligonucleotide treatment period, mice were infused with PTH by subcutaneously implanted mini-pumps at a dose of 1 ug/100 g/6 hr. A group of control mice were dosed with either saline, PTH alone (1 ug/100 g/6 hr) or calcitonin (400 ug) plus PTH (1 ug/100 g/6 hr). Following 24 hours of PTH infusion (total PTH delivery of 4ug/100 g), the mice were sacrificed and measurements were made of serum calcium with the Sigma Diagnostics Calcium Kit (Sigma-Aldrich) and RANK mRNA expression in the proximal tibia (as described in other examples herein). Percent RANK mRNA inhibition is normalized to PTH alone treatment.
# RANK mRNA [2] = assay: RANK mRNA expression in mouse proximal tibia after antisense oligonucleotide treatment and PTH infusion: dose response and delivery method (Table 12); type: in vivo; conditions: then 24 h PTH
# Method: In accordance with the present invention, ISIS 181071 was evaluated for its ability to inhibit RANK expression and PTH-induced serum calcium concentration increase following 18 days of oligonucleotide treatment.
# Female Swiss-Webster mice (5-8 wks old), fed a low-calcium diet, were treated for 18 days with ISIS 181071 (SEQ ID NO: 356) at different doses and through different delivery methods. The dose of oligonucleotide was either 30 mg/kg, 20 mg/kg, 10 mg/kg, 3 mg/kg, or 0.1 mg/kg administered by daily subcutaneous injections for the first five days, followed by mini-pump infusion for the remaining 13 days, or the dose was 10 mg/kg or 30 mg/kg administered daily by subcutaneous injection for the entire 18 day period. After 18 days of treatment with oligonucleotides, the mice were infused with PTH by subcutaneously implanted mini-pumps at a dose of 1 ug/100 g/6 hr. A group of control mice received saline, calcitonin (400 ng) plus PTH (1 ug/100 g/6 hr) or PTH alone (1 ug/100 g/6 hr). After 24 hours of PTH infusion (total PTH delivery of 4ug/100 g), the mice were sacrificed and measurements were made of serum calcium with the Sigma Diagnostics Calcium Kit (Sigma-Aldrich) and RANK mRNA expression in proximal tibia (as described in other examples herein). The results are shown in Table 12 are normalized to PTH treatment alone and are the average of four mice per group.
# RANK mRNA [3] = assay: RANK mRNA expression in mouse proximal tibia after antisense oligonucleotide treatment and PTH infusion: time course (Table 13); type: in vivo; conditions: for RANK mRNA % inhibition (normalized to PTH) Proximal Tibia: then 24 h PTH
# Method: as §1, §2
# [4] = Short-term bone resorption model: serum calcium after PTH infusion (Table 6); type: in vivo, mouse; conditions: mice infused with PTH 1 ug/100 g/6 hr
# Source text: Parathyroidectomized rats are a well-established, short-term model of bone resorption and are useful in the investigation of antiresorptive agents. However, it is difficult to surgically remove only the parathyroid gland of rodents, and the inadvertent removal of the adjacent thyroid gland often has effects on thyroid hormone levels that introduce into the experiment an undesirable level of variability. Continuous infusion of parathyroid hormone (PTH) into intact, young (6-9 weeks old) mice reproduces the short-term bone resorption activity seen in parathyroidectomized rodents and is thus a useful, non-invasive model for the study of antiresorptive agents. The PTH infusion activates bone osteoclasts and causes them to degrade bone matrix, with a resulting rise in serum calcium. In accordance with the present invention, a short-term mouse model of bone resorption was developed and used to evaluate the effects of PTH infusion on serum calcium concentration and RANKL mRNA levels.
# Female, Swiss-Webster mice (5-8 weeks old) were placed on a low calcium diet and implanted with mini-pumps delivering PTH continuously. The pumps were calibrated to deliver 1 ug PTH per 100 g bodyweight per 6 hour time period (1 ug/100 g/6 hr). With this procedure, over a 24 hour period, a total of 4 ug PTH per 100 g body weight is delivered (4 ug/100 g/24 hr). PTH infusion was conducted in these mice for 6, 12, 18 and 24 hours. At the end of each time period, the mice were sacrificed and measurements were made of the serum calcium, using the Sigma Diagnostics Calcium Kit (Sigma-Aldrich), and RANKL mRNA expression in the proximal tibia, as described in other examples herein. The data are expressed as percent increase relative to no PTH treatment.
# [5] = mice, 30 mg/kg daily s.c. for 2, 3, 5, 7, 10, 14, or 21 days, 24 hours PTH infusion
molecule,measurement,setting,value
"TCCTCGAGAGGTCTCCTTGC (antisense eT*e[5mC]*e[5mC]*eT*e[5mC]*dG*dA*dG*dA*dG*dG*dT*d[5mC]*dT*d[5mC]*e[5mC]*eT*eT*eG*e[5mC]) [ISIS 181071, 2′-MOE gapmer antisense oligonucleotide targeted to mouse RANK]",Serum calcium concentration,[1]; 30 mg/kg daily sc for 2 days,20 mg/dL
same,Serum calcium concentration,[1]; 30 mg/kg daily sc for 3 days,17 mg/dL
same,Serum calcium concentration,[1]; 30 mg/kg daily sc for 5 days,16 mg/dL
same,Serum calcium concentration,[1]; 30 mg/kg daily sc for 7 days,16 mg/dL
same,Serum calcium concentration,[1]; 30 mg/kg daily sc for 10 days,18 mg/dL
same,Serum calcium concentration,[1]; 30 mg/kg daily sc for 14 days,15 mg/dL
same,Serum calcium concentration,[1]; 30 mg/kg daily sc for 21 days,15 mg/dL
same,PTH-induced increase in serum calcium concentration,[1]; [5],lessens the PTH-induced increase in serum calcium concentration
same,RANK mRNA % inhibition (normalized to PTH),"RANK mRNA [2]; 0.1 mg/kg, injection 5 days then infusion 13 days",19%
same,RANK mRNA % inhibition (normalized to PTH),"RANK mRNA [2]; 3 mg/kg, injection 5 days then infusion 13 days",5%
same,RANK mRNA % inhibition (normalized to PTH),RANK mRNA [2]; 10 mg/kg daily subcutaneous injection 18 days,29%
same,RANK mRNA % inhibition (normalized to PTH),"RANK mRNA [2]; 10 mg/kg, injection 5 days then infusion 13 days",23%
same,RANK mRNA % inhibition (normalized to PTH),"RANK mRNA [2]; 20 mg/kg, injection 5 days then infusion 13 days",33%
same,RANK mRNA % inhibition (normalized to PTH),RANK mRNA [2]; 30 mg/kg daily subcutaneous injection 18 days,30%
same,RANK mRNA % inhibition (normalized to PTH),"RANK mRNA [2]; 30 mg/kg, injection 5 days then infusion 13 days",32%
same,RANK mRNA % inhibition (normalized to PTH) Proximal Tibia,RANK mRNA [3]; 30 mg/kg daily sc for 2 days,34%
same,RANK mRNA % inhibition (normalized to PTH) Proximal Tibia,RANK mRNA [3]; 30 mg/kg daily sc for 3 days,14%
same,RANK mRNA % inhibition (normalized to PTH) Proximal Tibia,RANK mRNA [3]; 30 mg/kg daily sc for 5 days,32%
same,RANK mRNA % inhibition (normalized to PTH) Proximal Tibia,RANK mRNA [3]; 30 mg/kg daily sc for 7 days,61%
same,RANK mRNA % inhibition (normalized to PTH) Proximal Tibia,RANK mRNA [3]; 30 mg/kg daily sc for 10 days,37%
same,RANK mRNA % inhibition (normalized to PTH) Proximal Tibia,RANK mRNA [3]; 30 mg/kg daily sc for 14 days,53%
same,RANK mRNA % inhibition (normalized to PTH) Proximal Tibia,RANK mRNA [3]; 30 mg/kg daily sc for 21 days,52%
same,RANK mRNA expression in the proximal tibia,RANK mRNA [3]; [5],inhibition of RANK mRNA in the proximal tibia
"parathyroid hormone (peptide, UniProt P01270 32-115, looked up, parathyroid hormone infused to induce bone resorption in the mouse model) Parathyroid hormone: SVSEIQLMHNLGKHLNSMERVEWLRKKLQDVHNFVALGAPLAPRDAGSQRPRKKEDNVLVESHEKSLGEADKADVNVLTKAKSQ",Serum Calcium Concentration % control,[4]; 6 hours,109 % control
same,Serum Calcium Concentration % control,[4]; 12 hours,115 % control
same,Serum Calcium Concentration % control,[4]; 18 hours,125 % control
same,Serum Calcium Concentration % control,[4]; 24 hours (4 ug/100 g),230 % control
